Laboratory results published in PubChem BioAssay (NCI).
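Dose response: 5 concentrations. Exposure: 48 h. Format: 96-well plates. Endpoint: linear interpolation; highest concentration if not reached. GI50: concentration for 50% inhibition of growth. The concentration for full growth arrest is given as TGI.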

Assays:
Test in all cases: NCI anticancer screen, dose series, 48 h
MDA-MB-435 = tested on: MDA-MB-435
MALME-3M melanoma = tested on: MALME-3M melanoma
SK-MEL-5 melanoma = tested on: SK-MEL-5 melanoma
TK-10 renal = tested on: TK-10 renal
MOLT-4 leukemia = tested on: MOLT-4 leukemia
SK-OV-3 ovarian = tested on: SK-OV-3 ovarian
KM12 colon = tested on: KM12 colon
SNB-19 CNS = tested on: SNB-19 CNS
SK-MEL-28 melanoma = tested on: SK-MEL-28 melanoma
RPMI-8226 leukemia = tested on: RPMI-8226 leukemia

Row | Structure (SMILES) | GI50 (MDA-MB-435) [µM] | TGI (MDA-MB-435) [µM] | GI50 (MALME-3M melanoma) [µM] | TGI (MALME-3M melanoma) [µM] | GI50 (SK-MEL-5 melanoma) [µM] | TGI (SK-MEL-5 melanoma) [µM] | GI50 (TK-10 renal) [µM] | TGI (TK-10 renal) [µM] | GI50 (MOLT-4 leukemia) [µM] | TGI (MOLT-4 leukemia) [µM] | GI50 (SK-OV-3 ovarian) [µM] | TGI (SK-OV-3 ovarian) [µM] | GI50 (KM12 colon) [µM] | TGI (KM12 colon) [µM] | GI50 (SNB-19 CNS) [µM] | TGI (SNB-19 CNS) [µM] | GI50 (SK-MEL-28 melanoma) [µM] | TGI (SK-MEL-28 melanoma) [µM] | TGI (RPMI-8226 leukemia) [µM] | GI50 (RPMI-8226 leukemia) [µM]
1 | C=C1C(OC/C=C/COC2O[C@@H]3O[C@@]4(C)CC[C@H]5[C@H](C)CC[C@@H](C2=C)[C@@]35OO4)O[C@@H]2O[C@@]3(C)CC[C@H]4[C@H](C)CC[C@@H]1[C@@]24OO3 (stereo partly drawn) | 0.301 | 21.5 | 0.301 | 18.4 | 3.58 | 27.3 | 0.492 | 16.9 | 0.309 | > 100 | 51.3 | > 100 | < 0.024 | 0.778 | 30.8 | > 100 | 12.3 | 52.2 | 10.6 | –
2 | CN(C)CCSCCO | – | > 100 | – | > 100 | – | > 100 | – | > 100 | – | – | – | > 100 | – | > 100 | – | > 100 | – | > 100 | > 100 | –
3 | COc1cc(C2CC(=O)Nc3c2ccc2ccccc32)cc(Br)c1OC (stereo not drawn) | 0.138 | 0.464 | 0.582 | > 70.6 | 0.414 | 9.93 | 13.4 | > 100 | 0.45 | 12.4 | 0.507 | > 22.7 | 0.532 | > 41.2 | 11.7 | > 100 | 0.805 | > 100 | 24.1 | 0.562
4 | O=C1c2ccccc2-c2c1c1ccc([N+](=O)[O-])cc1c(=O)n2CCCNCCO | 0.95 | 2.67 | 0.341 | 1.62 | 0.0875 | 0.349 | 1.37 | 4.1 | 0.0374 | 1.4 | 0.525 | 2.56 | 0.297 | 1.76 | 0.107 | 1.82 | 1.27 | 2.62 | 0.239 | 0.0359
5 | Cc1cnccc1N=Nc1ccc(N(C)C)cc1 | – | 41.2 | – | > 100 | – | 29.5 | – | 50.9 | – | 79.5 | – | 48.2 | – | > 100 | – | > 100 | – | 52.7 | 48.3 | –
6 | NCCCN1CCN(CCCNc2nc3ccccc3c3[nH]c4ccccc4c23)CC1 | 0.651 | 2.41 | 2.3 | 4.96 | 1.14 | 2.53 | 0.81 | 11.1 | 0.155 | 4.02 | 6.7 | 41.4 | 0.415 | – | 0.34 | 2.07 | 0.888 | 2.32 | 0.817 | 0.241
7 | O=c1oc2c3ccc4cnccc4c3[nH]c2c2ccccc12 | 18.1 | 34.2 | 18.9 | 45.1 | 8.01 | 22.2 | 43.8 | > 100 | 4.83 | 25.4 | > 100 | > 100 | 13.1 | > 100 | 18.5 | > 100 | 16.4 | 32 | 33.4 | 7.94
8 | C=C(CNC(=O)c1ccccc1)c1ccc(C(=O)Nc2ccccc2N)cc1 | 6.88 | > 100 | 2 | > 100 | 2.67 | 14.9 | 2.12 | 13.6 | 1.49 | > 100 | > 100 | > 100 | 5.11 | > 100 | 80.2 | > 100 | 14 | > 100 | – | –
9 | N#C/C(=C\c1c(-c2ccccc2)[nH]c2ccccc12)C(=O)c1ccccc1 | 0.37 | 4.14 | 12.3 | > 100 | – | – | 11.1 | 86.9 | – | – | 15.2 | > 100 | 1.96 | 19.4 | 16.8 | > 100 | 12 | > 100 | 7.98 | 2.43
10 | COC12CCC(C(C(=O)c3ccccc3)=C1C(=O)c1ccccc1)C(O)C2 (stereo not drawn) | – | – | – | > 100 | – | > 100 | – | > 100 | – | > 100 | – | > 100 | – | > 100 | – | > 100 | – | > 100 | > 100 | –
11 | CNC1=C(C(=O)OC)SC(c2ccccc2)(c2ccccc2)SC1 | 3.15 | 10.9 | – | – | 19.5 | > 100 | 25.3 | > 100 | 7.56 | > 100 | 71.1 | > 100 | 6.92 | > 100 | 52.8 | > 100 | 26.6 | > 100 | 39.7 | 8.83
